# System: M. tuberculosis moxifloxacin resistant mutants (G88C, A90V, D94G in gyrase A) and H37Rv
# Format: cell-based, Mycobacterium tuberculosis
Structure (SMILES),activity in fluoroquinolone resistant strains,growth inhibition compared with moxifloxacin
Cc1cc(=O)oc2cc(OCCN3CCN(Cc4ccc(Br)cc4)CC3)ccc12 [CM12],maintained potency in all evaluated strains,growth inhibition in similar ranges to moxifloxacin
Cc1c(C#N)c(=O)oc2cc(OCCN3CCN(Cc4ccc(Br)cc4)CC3)ccc12 [CM14],maintained potency in all evaluated strains,growth inhibition in similar ranges to moxifloxacin

# Reference: article PMC6151660 (Molecules : A Journal of Synthetic Chemistry and Natural …, 2017)
